#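 Each compound was tested at five concentrations against cells in 96-well plates for 48 hours. At the TGI there is no net growth.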
# Tested on: SNB-78 CNS
# Assay: NCI anticancer screen, dose series, 48 h
row,Structure (SMILES),TGI [µM]
1,OC12c3ccccc3C1CCCCC2N1CCCC1 (stereo not given),> 100
2,COc1ccc(CNc2cnc3cc(N)ccc3n2)cc1,> 100
3,COc1cc(/C=C2\C(=O)N(C(=O)Cc3ccccc3)N=C2C)cc(OC)c1OC,> 100
4,COc1cccc2c1c1ccc3c(c1n2C)C(=O)C=CC3=O,42.5
5,COc1cc(C2C(Cl)C(=O)N2NC(=O)Cc2ccccc2)cc(Br)c1O (stereo not given),> 100
